B1: DsaD/DsaE complex (Streptomyces scopuliridis) (protein)
chain: MGSSHHHHHHSSGLVPRGSHMASMTGGQQMGRGSEFMHIVTTPVARPLTAQERTERCAAPAFGTAFTEHMVSARWNPEQGWHDAELVPYGPLLLDPATVGLHYGQVVFEGLKAFRSHTGEVAVFRPDAHAERMRASARRLMMPEPPEELFLAAVDALVAQDQEWIPDDPGMSLYLRPILFASERTLALRPAREYRFLLVAFITEGYFGPAQRPVRVWVTDEYSRAAAGGTGAAKCAGNYAGSLLAQEEAQRKGCDQVVWLDPVERNWVEEMGGMNLFFVYEAGGSARLVTPPLTGSLLPGVTRDALLRLAPTLGVPVSEAPLSLEQWRADCASGAITEVFACGTAARISPVNEVSTKDGSWTIGAGAPAEGGVAAGEVTGRLSAALFGIQRGELPDSHSWMRPVSPARQSAIT
B2: DsaE: small partner protein of aminotransferase DsaD, SEQ ID NO: 3, Streptomyces scopuliridis (protein, listed as Streptomyces scopuliridis)
chain: MTESSPTEVNEARVREYYRLVDADDVLGLVSLFAEDAVYRRPGYEPMRGHTGLTAFYTGERVIESGRHTVATVVARGDQVAVNGVFEGVLKDGRQVRLEFADFFLLNGERRFSRRDTYFFAPLV
modifications: DsaE

Columns and labels:
[1] = test system: DsaD/E complex; experiment: Analytical-scale Cα/Cβ H/D exchange with purified DsaD and DsaE; assay type: biochemical, Streptomyces scopuliridis; settings: 10 mM substrate, 5 μM DsaD, 50 μM DsaE (10:1), 37° C., 8 h
Protocol: FIGS. 3A-3C. Optimization of H/D exchange reactions and evaluation of the substrate scope. FIG. 3A. Optimization of Cβ-deuteration by increasing equivalents of partner protein DsaE. FIG. 3B. Evaluation of substrate scope of dual-protein-catalyzed Cα/Cβ deuteration under optimized conditions. FIG. 3C. UV-visible spectroscopy used to evaluate non-native substrate binding to DsaD. Reaction conditions: 10 mM amino acid substrate, 50 μM DsaE, 5 μM DsaD (10:1), 50 mM sodium phosphate (pD 8.4), 0.1 mM PLP, D2O, 37° C., 8 h. Reactions performed in duplicate, and percentage isotope incorporation is reported as the average of the replicates.
General procedure analytical scale deuteration reactions: α/β deuteration reactions were performed as follows. A 1 mL Eppendorf tube was charged with amino acid (10-20 mM final concentration), Na3PO4 buffer pD 8.4 (50 mM final concentration), PLP (100 μM final concentration), purified enzymes or appropriate lysate and D2O and to the appropriate final volume (typically 50 μL). Reactions were carried out at 37° C. for 8 h and quenched by the addition of 3 volumes of acetonitrile. Precipitated biomolecules were pelleted by centrifugation (16,000×g, 10 min) and samples were processed as described below.
(§1) Marfey's derivatization of analytical scale reactions: Derivatization of the resulting analytical scale product mixture (to increase overall signal and enable reverse phase chromatographic analysis) was achieved by treatment with Marfey's reagent^2 (1-fluoro-2-4-dinitrophenyl-5-L-alanine amide, L-FDAA) using the following protocol. 25 μL of quenched reaction mix (final amine concentration, 1.6 mM) was added to an Eppendorf tube with 50 μL of 15 mM NaHCO3 (final concentration, 5 mM) and 75 μL of 5 mM L-FDAA (final concentration, 2.5 mM). Derivatization reactions were carried out for 10-12 h before quenching with 150 μL of 60 mM HCl dissolved in acetonitrile. Final reaction analysis was carried out by UPLC-DAD-MS and quantitation as described below.
(§2) Quantitation of deuteration in analytical scale reactions: Deuteration reactions were analyzed by UPLC-DAD-MS with single ion recording (SIR) channels set to record a spectrum with the appropriate isotopic mass in positive mode. The area under the curve of recorded SIR peaks was obtained and normalized to account for natural isotopic abundance distributions (e.g. ^13C, ^15N, ^2H, ^34S, etc). Percent deuterium incorporation was calculated by the formula below. These measurements were carried out in an iterative fashion to measure Cα deuteration and Cβ deuteration.

[2] = test system: DsaD/E complex; experiment: Preparative-scale Cα/Cβ-deuteration with DsaD and DsaE clarified lysates in D2O; assay type: biochemical, Streptomyces scopuliridis
Protocol: FIG. 5. ^1H NMR analysis of site-selective deuteration of L-Leu. Reaction conditions: 20 mM L-Leu 2.5% v/v DsaD clarified lysate, 2.5% v/v DsaE clarified lysate (when needed), 50 mM sodium phosphate (pD 8.4), 0.1 mM PLP, D2O (99.9% D).
FIG. 8. Preparative-scale and site-selective deuteration of amino acids. Conditions: 10-20 mM amino acid, 2.5% v/v DsaD clarified lysate, 2.5% v/v DsaE clarified lysate, 50 mM sodium phosphate (pD 8.4), 0.1 mM PLP, D2O (99.9%).
General procedure for milligram-scale biocatalytic deuteration: A 4-dram scintillation vial was charged with amino acid (10-20 mM final concentration), Na3PO4 buffer pD 8.4 (50 mM final concentration), PLP (100 μM final concentration), DsaD clarified cell lysate (2.5% v/v), DsaE clarified cell lysate (if applicable) (2.5% v/v), and D2O (or dH2O) to the appropriate final volume. The reaction vessel was placed in an incubator at 37° C. for 16 h. Reaction progress was monitored by UPLC-MS. After reaction completion, the reaction mixture was quenched with an equivalent volume of acetone and centrifuged (4,000 rpm, 10 min) to remove denatured protein. Supernatant was transferred to a clean beaker, the decanted supernatant was concentrated to remove acetone by rotary evaporation and loaded onto a preparative reverse-phase C18 column pre-equilibrated with water. Purification was performed via gradient elution on an Isolera One Flash Purification system (Biotage). Fractions bearing product (confirmed by UPLC-MS sampling of fraction tubes) were pooled and dried by rotary evaporation. The product was then resuspended in a minimal quantity of water, transferred to a pre-weighed 20 mL vial, frozen, and lyophilized.

[3] = molecular target: DsaD (Streptomyces scopuliridis, UniProt A0A0D5CCB2); experiment: UV-vis spectroscopy of amino acid binding to DsaD; settings: 20 μM DsaD, pH 8.0, 25° C.
Protocol: UV-Vis Spectroscopy: Data were collected between 600 and 300 nm on a UV-2600 Shimadzu spectrophotometer (Shimadzu, Kyoto, Japan) with a semi-micro quartz cuvette (Starna Cells, Atascadero, California, USA) at 25° C. DsaD stock solutions were diluted to 20 μM in 50 mM sodium phosphate pH 8.0. For observation of substrate binding, amino acids were added at concentrations ranging from 2.5-10 mM. Spectra from 600-300 nm were collected after a 2-minute incubation period. Amino acid stocks were prepared as 100 mM stocks in deionized water.

[4] = substrate: CC[C@H](C)[C@H](N)C(=O)O; experiment: Steady-state kinetic analysis of H/D exchange of L-Ile by DsaD with partner protein DsaE; assay type: biochemical, Streptomyces scopuliridis; settings: pH 8.4
Protocol: (§3) FIGS. 2A-2E. Steady-state kinetic analysis of H/D exchange by the Ile epimerization system. FIG. 2A. Steady-state kinetic analysis describing Cβ-deuteration^a of L-Ile under varied equivalents of partner enzyme DsaE. FIG. 2B. Steady-state kinetic analysis of Cβ-deuteration rates^a at a constant 1 mM L-Ile, measured against increasing equivalents of DsaE. FIG. 2C. Steady-state kinetic analysis of Cα-deuteration^a of L-Ile in the presence and absence of partner protein DsaE. FIG. 2D. Proposed mechanism of selective deuterium incorporation at Cα and Cβ catalyzed by dual protein catalysis. FIG. 2E. UV-visible spectrum of DsaD in the absence and presence of L-Ile.^a Measurement of initial rates was performed in duplicate at 24° C. Conditions: 0.1-10 mM L-Ile, 3 μM DsaD, 50 mM sodium phosphate (pD 8.4), and 0.1 mM PLP in D2O (99.9%). Proteins were exchanged into a 50 mM sodium phosphate-D2O (pD 8.4) solution prior to reaction initiation to minimize proton contamination (<1% H2O). Following quench with MeCN, crude reaction products were subjected to functionalization with Marfey's reagent (L-FDAA) to enable analysis by reverse-phase chromatography and quantification of isotope incorporation by mass spectrometry.
as §1
Quantitation of deuteration in analytical scale reactions: Deuteration reactions were analyzed by UPLC-DAD-MS with single ion recording (SIR) channels set to record a spectrum with the appropriate isotopic mass in positive mode. The area under the curve of recorded SIR peaks was obtained and normalized to account for natural isotopic abundance distributions (e.g. ^13C, ^15N, ^2H, ^34S, etc). Percent deuterium incorporation was calculated by the formula below. […]
Kinetic analysis of biocatalytic L-Ile deuteration: Initial rates of α- or β-deuteration were obtained by means of end-point assay using the quantitation protocol for analytical scale reactions as described above. […] Michaelis constants (KM) for α- and β-deuteration of L-Ile were determined using the concentration range of 0.1-10 mM L-Ile using 3 μM DsaD. […]

[5] = molecular target: DsaD/DsaE complex (Streptomyces scopuliridis, UniProt A0A0D5CCB2); experiment: as above; assay type: biochemical
Protocol: as §3, §1, §2
Kinetic analysis of biocatalytic L-Ile deuteration: Initial rates of α- or β-deuteration were obtained by means of end-point assay using the quantitation protocol for analytical scale reactions as described above. All reagents were prepared in D2O (99.9% D) and protein stocks were dialyzed (3 exchanges over 3 h at 4° C.) into 50 mM sodium phosphate buffer dissolved in D2O (pD 8.4) using a slide-a-lyzer device with a 3,000 Da cutoff. Reactions were performed at 25° C. in 1 mL Eppendorf tubes. Michaelis constants (KM) for α- and β-deuteration of L-Ile were determined using the concentration range of 0.1-10 mM L-Ile using 3 μM DsaD. Partner protein (DsaE) concentrations were consistent within each experiment and separate experiments were performed using varied equivalents of partner protein (0-50 equiv). Initial velocities were measures in duplicate or triplicate for at least 6 different substrate concentrations for each set of conditions tested. Measurements of the impact of partner protein (DsaE) concentration on the initial rate of β-deuteration were carried out using 1 mM L-Ile, 3 μM DsaD and varying DsaE concentrations between 3 μM-600 μM (1-200 equiv). Under the minimal proton contamination conditions of this assay (99.9% D2O), Cα and Cβ deuteration are assumed to have occurred without back transfer to proton. The data were fit using the Michaelis-Menten equation implemented in Prism.

[6] = lower substrate loading (10 mM)
[7] = DsaD and DsaE clarified lysates, D2O, 5% 1H-water

Sequence of DsaD/DsaE complex (A0A0D5CBB6 entry or part of it, one chain of several): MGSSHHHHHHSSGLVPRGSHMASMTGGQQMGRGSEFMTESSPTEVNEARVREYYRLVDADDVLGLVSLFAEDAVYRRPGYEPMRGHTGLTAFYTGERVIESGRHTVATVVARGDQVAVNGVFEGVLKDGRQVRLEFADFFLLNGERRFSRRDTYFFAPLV

Molecule	D-incorporation at Cα [1]	D-incorporation at Cβ [1]	Cα and Cβ D-incorporation [1]	further results
COc1ccc(C[C@H](N)C(=O)O)cc1 [compound 34, (OMe)-L-Tyr]	99%	74%		
CC[C@H](C)[C@H](N)C(=O)OC [methyl ester of Ile]			Neither of these substrates underwent deuteration	
N[C@@H](CO)C(=O)O [Ser]			did not undergo any deuteration	
[2H]C([2H])(c1ccccc1)[C@]([2H])(N)C(=O)O [L-Phe-2,3,3-d3]				deuterium incorporation at Cα [2, 6]: 95%; deuterium incorporation at Cβ [2, 6]: 85%
CSC[C@H](N)C(=O)O [S-Me-Cys, S-methylcysteine]	high levels of exchange	moderate levels of D-incorporation		
N[C@@H](Cc1c[nH]c2ccccc12)C(=O)O [Trp, tryptophan]	underwent Cα-deuteration	no Cβ-deuteration		
[2H]C([2H])(C(C)C)[C@]([2H])(N)C(=O)O [L-Leu-2,3,3-d3]				deuterium incorporation at Cα [2, 7]: 95%; deuterium incorporation at Cβ [2, 7]: 86%
C[C@@H](O)[C@H](N)C(=O)O [Thr, threonine]			did not undergo any deuteration	substrate binding to DsaD by UV-vis [3]: no binding was observed
CSCC[C@H](N)C(=O)O [Met, methionine]	high levels of exchange	moderate levels of D-incorporation		
CO[C@H](C)[C@H](N)C(=O)O [compound 30, L-(OMe)-Thr]	high levels of deuteration	moderate deuterium incorporation and scrambling of configuration		substrate binding to DsaD by UV-vis [3]: enables productive binding
CC(C)CCN [isopentylamine]			Neither of these substrates underwent deuteration	
B1				Km ([4]; other: 5 equiv. of DsaE (5:1 DsaE:DsaD)): 200 ± 10 µM; Km ([4]; other: 50 equiv. of DsaE (50:1 DsaE:DsaD)): 300 ± 90 µM; Km ([4]; other: one equivalent of DsaE, 3 μM DsaD): 2400 ± 680 µM; Km ([4]; other: with DsaE bound): 120 ± 20 µM
B2				Km ([5]; 1 mM L-Ile, 3 μM DsaD, initial rate of Cβ-deuteration vs DsaE, read-out: KM for the formation of the active DsaD/DsaE complex): 40 ± 5 µM; DsaE concentration at plateau of Cβ-deuteration rate ([5]; 1 mM L-Ile, 3 μM DsaD, 100:1 ratio): around 0.3 mM; KM for association of DsaD and DsaE ([5]; as restated in conclusions): 40 µM
